PubChem BioAssay AID248 (DTP/NCI, 2004)
Several values for one entry are separate records, joined by “and”; a condition that tells them apart may be missing. Equal entries are not always repeated. Toxic doses and inconclusive results are not listed. Cut-off read from the data, not from the text of the source: active = T/C of 150% or more; inactive = T/C below 125%.

Test system: L1210 leukemia ip in BDF1 mice, survival T/C
Assay: NCI In Vivo Anticancer Drug Screen. Data for tumor model L1210 Leukemia (intraperitoneal) in B6D2F1 (BDF1) mice
Details: endpoint: mean survival time, higher = longer survival
Method in brief: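 In this screen, tumor-bearing mice given compound are compared to those given vehicle, and their survival values are reported as a treated-to-control quotient.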

[1] = dose: 100.0 mg/kg/injection, schedule: Q01DX009 (ip), vehicle: Klucel (hydroxypropylcellulose) (HPC)
[2] = dose: 100.0 mg/kg/injection, schedule: Q04DX003 (ip), vehicle: Klucel (hydroxypropylcellulose) (HPC)
[3] = dose: 200.0 mg/kg/injection, schedule: Q01DX009 (ip), vehicle: Klucel (hydroxypropylcellulose) (HPC)
[4] = dose: 200.0 mg/kg/injection, schedule: Q04DX003 (ip), vehicle: Klucel (hydroxypropylcellulose) (HPC)
[5] = dose: 400.0 mg/kg/injection, schedule: Q04DX003 (ip), vehicle: Klucel (hydroxypropylcellulose) (HPC)
[6] = dose: 100.0 mg/kg/injection, schedule: Q01DX001 (ip), vehicle: carboxymethylcellulose (CMC)
[7] = dose: 200.0 mg/kg/injection, schedule: Q01DX001 (ip), vehicle: carboxymethylcellulose (CMC)
[8] = dose: 400.0 mg/kg/injection, schedule: Q01DX001 (ip), vehicle: carboxymethylcellulose (CMC)
[9] = dose: 12.5 mg/kg/injection, schedule: Q01DX009 (ip), vehicle: saline
[10] = dose: 400.0 mg/kg/injection, schedule: Q01DX009 (ip), vehicle: Klucel (hydroxypropylcellulose) (HPC)

Measured: T/C

N#CC(O)c1ccccc1 (configuration not stated)
inactive: dose: 2.5 mg/kg/injection, schedule: Q01DX009 (ip), vehicle: acetone 101 % of control | dose: 5.0 mg/kg/injection, schedule: Q01DX001 (ip), vehicle: carboxymethylcellulose (CMC) 95 % of control | dose: 5.0 mg/kg/injection, schedule: Q01DX009 (ip), vehicle: acetone 102 % of control | dose: 10.0 mg/kg/injection, schedule: Q01DX001 (ip), vehicle: carboxymethylcellulose (CMC) 91 % of control | dose: 10.0 mg/kg/injection, schedule: Q01DX009 (ip), vehicle: acetone 104 % of control

O=[N+]([O-])c1ccc(/C=N/c2ncc(Br)s2)o1
inactive: dose: 50.0 mg/kg/injection, schedule: Q01DX009 (ip), vehicle: saline with Tween-80 102 % of control | dose: 100.0 mg/kg/injection, schedule: Q01DX009 (ip), vehicle: saline with Tween-80 98 % of control | dose: 100.0 mg/kg/injection, schedule: Q04DX003 (ip), vehicle: saline with Tween-80 111 % of control | dose: 200.0 mg/kg/injection, schedule: Q04DX003 (ip), vehicle: saline with Tween-80 111 % of control

CS(=O)(=O)OC[C@@H]1C2C=CC(C2)[C@@H]1COS(C)(=O)=O
inactive: dose: 50.0 mg/kg/injection, schedule: Q01DX009 (ip), vehicle: Klucel (hydroxypropylcellulose) (HPC) 107 % of control | [1] 100 % of control | [2] 98 % of control | [3] 104 % of control | [4] 94 % of control | [5] 107 % of control

O=C(Nc1ccccc1C(=O)OCc1ccc([N+](=O)[O-])cc1)OCc1ccccc1
inactive: dose: 75.0 mg/kg/injection, schedule: Q04DX003 (ip), vehicle: saline 98 % of control | dose: 150.0 mg/kg/injection, schedule: Q04DX003 (ip), vehicle: saline 98 % of control | dose: 300.0 mg/kg/injection, schedule: Q04DX003 (ip), vehicle: saline 104 % of control

CC(=O)Nc1ccc(/C=N\NC(=S)Nc2ccc3cn[nH]c3c2)cc1
inactive: dose: 50.0 mg/kg/injection, schedule: Q01DX001 (ip), vehicle: carboxymethylcellulose (CMC) 100 % of control | [6] 97 % of control | [7] 103 % of control | [8] 97 % of control

OC1OCC(OCc2ccccc2)C(OCc2ccccc2)C1OCc1ccccc1 (configuration not stated)
inactive: [6] 101 % of control | [7] 101 % of control | [8] 95 % of control

CN(C)NP(=O)(NN(C)C)N(C)C
inactive: dose: 100.0 mg/kg/injection, schedule: Q04DX003 (ip), vehicle: saline 100 % of control | dose: 200.0 mg/kg/injection, schedule: Q04DX003 (ip), vehicle: saline 100 % of control | dose: 400.0 mg/kg/injection, schedule: Q04DX003 (ip), vehicle: saline 94 % of control

COc1ccc(OC)c(NC(=O)Oc2ccccc2C(N)=O)c1
inactive: dose: 25.0 mg/kg/injection, schedule: Q04DX003 (ip), vehicle: Klucel (hydroxypropylcellulose) (HPC) 89 % of control | dose: 50.0 mg/kg/injection, schedule: Q04DX003 (ip), vehicle: Klucel (hydroxypropylcellulose) (HPC) 95 % of control | [2] 94 % of control and 92 % of control

Nc1ccc(C(=O)OCCCN2CCCCC2)cc1
inactive: [9] 101 % of control | dose: 25.0 mg/kg/injection, schedule: Q01DX009 (ip), vehicle: saline 97 % of control | dose: 50.0 mg/kg/injection, schedule: Q01DX009 (ip), vehicle: saline 101 % of control

CCCCNC(=O)Nc1ccc(OC)cc1OC
inactive: [1] 101 % of control | [2] 92 % of control | [3] 96 % of control | [4] 95 % of control | [10] 118 % of control | [5] 95 % of control

CCOC(=O)c1[nH]c(C)c(CCCC(=O)O)c1C
inactive: dose: 75.0 mg/kg/injection, schedule: Q01DX001 (ip), vehicle: acetone 102 % of control | dose: 150.0 mg/kg/injection, schedule: Q01DX001 (ip), vehicle: acetone 104 % of control

O=C1NCC(O)CN1
inactive: dose: 29.0 mg/kg/injection, schedule: Q01DX Z (ip), vehicle: methylcellulose (MC) 96 % of control | dose: 45.0 mg/kg/injection, schedule: Q01DX Z (ip), vehicle: methylcellulose (MC) 96 % of control | dose: 67.0 mg/kg/injection, schedule: Q01DX Z (ip), vehicle: methylcellulose (MC) 108 % of control | dose: 100.0 mg/kg/injection, schedule: Q01DX Z (ip), vehicle: methylcellulose (MC) 104 % of control

CN(C)c1ccc(/C=C/C(=O)/C=C/c2ccc(N(C)C)cc2)cc1
inactive: [1] 96 % of control | [3] 95 % of control | [10] 101 % of control

NNC(=O)CCNCCC(=O)NN
inactive: dose: 100.0 mg/kg/injection, schedule: Q04DX002 (ip), vehicle: saline + alcohol 94 % of control | dose: 200.0 mg/kg/injection, schedule: Q04DX002 (ip), vehicle: saline + alcohol 88 % of control

CCCCNC(=O)Nc1cccc2ccccc12
inactive: [1] 96 % of control | [3] 96 % of control | [10] 97 % of control

O=C1C(=O)c2ccccc2C(O)=C1CCCc1ccc(OCc2ccccc2)cc1
inactive: dose: 12.5 mg/kg/injection, schedule: Q01DX009 (ip), vehicle: saline with Tween-80 92 % of control

COC(=O)CCC(C(=O)OC)P(=O)(OC(C)C)OC(C)C (configuration not stated)
inactive: dose: 100.0 mg/kg/injection, schedule: Q01DX001 (ip), vehicle: saline 96 % of control | dose: 200.0 mg/kg/injection, schedule: Q01DX001 (ip), vehicle: saline 102 % of control | dose: 400.0 mg/kg/injection, schedule: Q01DX001 (ip), vehicle: saline 86 % of control

CCOC(=O)c1nc(N)nc(N)c1Oc1ccccc1
inactive: dose: 50.0 mg/kg/injection, schedule: Q01DX001 (ip), vehicle: Klucel (hydroxypropylcellulose) (HPC) 92 % of control | dose: 100.0 mg/kg/injection, schedule: Q01DX001 (ip), vehicle: Klucel (hydroxypropylcellulose) (HPC) 93 % of control | dose: 200.0 mg/kg/injection, schedule: Q01DX001 (ip), vehicle: Klucel (hydroxypropylcellulose) (HPC) 92 % of control

CCCCCCN1C(C)C1C(C)C (configuration not stated)
inactive: dose: 20.0 mg/kg/injection, schedule: Q01DX009 (ip), vehicle: saline 114 % of control | dose: 20.0 mg/kg/injection, schedule: Q04DX003 (ip), vehicle: Klucel (hydroxypropylcellulose) (HPC) 105 % of control | dose: 40.0 mg/kg/injection, schedule: Q01DX009 (ip), vehicle: saline 115 % of control | dose: 40.0 mg/kg/injection, schedule: Q04DX003 (ip), vehicle: Klucel (hydroxypropylcellulose) (HPC) 100 % of control | dose: 80.0 mg/kg/injection, schedule: Q01DX009 (ip), vehicle: saline 107 % of control | dose: 80.0 mg/kg/injection, schedule: Q04DX003 (ip), vehicle: Klucel (hydroxypropylcellulose) (HPC) 105 % of control

COc1cc(O)c([N+](=O)[O-])cc1OC
inactive: dose: 50.0 mg/kg/injection, schedule: Q04DX003 (ip), vehicle: DMSO 92 % of control | dose: 100.0 mg/kg/injection, schedule: Q04DX003 (ip), vehicle: DMSO 97 % of control | dose: 200.0 mg/kg/injection, schedule: Q04DX003 (ip), vehicle: DMSO 92 % of control

O=Cc1c(Cl)n(-c2ccccc2)c2ccccc12
inactive: dose: 50.0 mg/kg/injection, schedule: Q04DX002 (ip), vehicle: Klucel (hydroxypropylcellulose) (HPC) 97 % of control | dose: 100.0 mg/kg/injection, schedule: Q04DX002 (ip), vehicle: Klucel (hydroxypropylcellulose) (HPC) 97 % of control | dose: 200.0 mg/kg/injection, schedule: Q04DX002 (ip), vehicle: Klucel (hydroxypropylcellulose) (HPC) 87 % of control

N#CC1=C(C#N)C(=O)C(Cl)=C(Cl)C1=O
inactive: dose: 6.25 mg/kg/injection, schedule: Q01DX009 (ip), vehicle: saline 98 % of control | [9] 102 % of control | dose: 12.5 mg/kg/injection, schedule: Q04DX003 (ip), vehicle: saline sonified 104 % of control | dose: 25.0 mg/kg/injection, schedule: Q04DX003 (ip), vehicle: saline sonified 93 % of control
